Measured values reported in publication PMC3025325, “Identification of a κ-opioid agonist as a potent and selective lead for drug development against human African trypanosomiasis” (Biochemical Pharmacology, 2010).
Where a name gives a salt, the structure may show the parent alone. Read-outs that look alike come from different tables or passages of the source.

How the values were obtained:
[1] = test system: bloodstream forms of Trypanosoma brucei; assay: Resazurin cell viability assay, EC50 determinations against T. brucei; format: cell-based, T. b. brucei (strain 427)
MRC5 cells = assay: Resazurin cell viability counter-screen, EC50 determinations against mammalian cells; format: cell-based, human
[2] = Trypanosoma brucei, 72 h, read-out: EC50 vs. T. brucei
[3] = Homo sapiens, MRC5, 72 h, read-out: EC50 vs. MRC5
[4] = Trypanosoma brucei, 72 h, LOPAC hits (library screening), 3 days incubation, mean of 3 determinations weighted to standard error, read-out: EC50 vs. T. brucei
[5] = Homo sapiens, MRC5, 72 h, 3 days incubation, mean of 4 determinations weighted to standard error, read-out: EC50 vs. MRC5
[6] = Trypanosoma brucei, 72 h, LOPAC hits, 3 days incubation, mean of 3 determinations weighted to standard error, read-out: EC50 vs. T. brucei
[7] = Trypanosoma brucei, 72 h, read-out: EC50 of standard drugs against T. brucei
[8] = read-out: EC50 of standard drugs against T. brucei

Compound	EC50 [1, 2] [nM]	Selectivity (MRC5 cells)	EC50 (MRC5 cells; [3]) [nM]	further results
CCn1cnc2c(Nc3cccc(Cl)c3)nc(N[C@@H]3CCCC[C@@H]3N)nc21.Cl (relative stereo) [CGP-74514A, N^2-(cis-2-Aminocyclohexyl)-N^6-(3-chlorophenyl)-9-ethyl-9H-purine-2,6-diamine HCl]	210 ± 8.3	7.1	1500 ± 620	–
NC[C@@H]1O[C@H](C23CC4CC(CC(C4)C2)C3)Cc2c1ccc(O)c2O (single isomer, unassigned; (-)) [A-77636 hydrochloride]	–	–	–	EC50 ([1]; read-out: EC50 vs. T. brucei): 2210 ± 150 nM
Nc1ncnc2c1nc(Sc1ccc(Cl)cc1)n2C1OC2COP(=O)(O)O[C@H]2C1O (stereo in doubt) [8-(4-Chlorophenylthio)-cAMP sodium]	–	44	–	–
N=C(N)SCCc1cccc(CCSC(=N)N)c1 [1,3-PBIT dihydrobromide, Phenylene-1,3-bis(ethane-2-isothiourea) dihydrobromide]	–	–	–	EC50 ([1]; read-out: EC50 vs. T. brucei): 1580 ± 80 nM
Nc1ccn([C@H]2CC[C@@H](CO)O2)c(=O)n1 [2′,3′-Dideoxycytidine]	> 10000	–	–	–
O=C(O)c1cc[c]([Hg][Cl])cc1 [4-Chloromercuribenzoic acid]	–	27	–	EC50 ([1]; read-out: EC50 vs. T. brucei): 690 ± 85 nM
COc1cc2c(CCNC(C)=O)c[nH]c2cc1O [6-Hydroxymelatonin]	–	–	–	EC50 ([1]; read-out: EC50 vs. T. brucei): 3310 ± 230 nM
Nc1ncnc2c1nc(Sc1ccc(Cl)cc1)n2[C@H]1OC2COP(=O)(O)O[C@H]2[C@@H]1O (stereo partly shown) [8-(4-Chlorophenylthio)-cAMP sodium]	–	–	–	EC50 ([1]; read-out: EC50 vs. T. brucei): 400 ± 54 nM
CCCn1c(=O)c2[nH]c(C3CCCC3)nc2n(CCC)c1=O [8-Cyclopentyl-1,3-dipropylxanthine]	530 ± 53	31	–	–
CC[C@@]1(O)C(=O)OCc2c1cc1n(c2=O)Cc2cc3ccccc3nc2-1 [(S)-(+)-Camptothecin]	–	1.5	–	EC50 ([1]; read-out: EC50 vs. T. brucei): 530 ± 13 nM; EC50 (MRC5 cells; read-out: EC50 vs. MRC5): 800 ± 99 nM
O=C1Cc2c([nH]c3ccc([N+](=O)[O-])cc23)-c2ccccc2N1 [Alsterpaullone]	400 ± 40	1.3	510 ± 170	–
CC1(C)CCC2=C(O1)c1ccccc1C(=O)C2=O [Beta-Lapachone]	850 ± 130	10	8600 ± 2900	–
C=CCc1ccccc1OCC(O)CNC1(C)CCC(C(C)(C)NC(=O)CBr)CC1 (stereo not shown) [Bromoacetyl alprenolol menthane]	1260 ± 140	–	–	–
NC(=O)c1cc(N2CC2)c([N+](=O)[O-])cc1[N+](=O)[O-] [CB 1954, 5-(1-Aziridinyl)-2,4-dinitrobenzamide]	1080 ± 90	–	–	–
Nc1nc2ccc(Cl)cc2c2nc(-c3ccco3)nn12 [CGS-15943, 9-Chloro-2-(2-furyl)[1,2,4]triazolo[1,5-c]quinazolin-5-amine]	1970 ± 210	–	–	–
O=C(/C=C/c1ccc(O)c(O)c1)OCCc1ccccc1 [Caffeic acid phenethyl ester]	1640 ± 130	–	–	–
CNc1ccc2oc(C[C@H]3O[C@@]4(CC[C@H]3C)O[C@H]([C@H](C)C(=O)c3ccc[nH]3)[C@H](C)C[C@H]4C)nc2c1C(=O)O [Calcimycin]	180 ± 13	4.2	750 ± 140	–
Clc1ccc(C(c2ccc(Cl)cc2)n2cc[n+](CC(OCc3ccc(Cl)cc3Cl)c3ccc(Cl)cc3Cl)c2)cc1 (stereo not shown) [Calmidazolium chloride]	510 ± 66	13	6600 ± 750	–
COc1ccc2c(c[n+](C)c3c4cc5c(cc4ccc23)OCO5)c1OC [Chelerythrine chloride]	–	42	–	EC50 [1, 4]: 59 ± 5.7 nM; EC50 (MRC5 cells; [5]): 2500 ± 480 nM
CN(N=O)c1cc(O)ccc1O [Dephostatin]	> 10000	–	–	–
Cc1cc(N)c2ccccc2[n+]1CCCCCCCCCC[n+]1c(C)cc(N)c2ccccc21 [Dequalinium dichloride]	43 ± 8.8	140	6100 ± 1500	Selectivity / specificity for T. brucei over human fibroblasts (MRC5 cells): greater than 100 fold
CC(C)[C@@]1(NC(=O)[C@@H]2C[C@@H]3c4cccc5[nH]cc(c45)C[C@H]3N(C)C2)O[C@@]2(O)[C@@H]3CCCN3C(=O)[C@H](Cc3ccccc3)N2C1=O.CS(=O)(=O)O [Dihydroergocristine methanesulfonate]	–	23	–	EC50 ([1]; read-out: EC50 vs. T. brucei): 890 ± 57 nM
c1ccc2c(c1)[I+]c1ccccc1-2 [Diphenyleneiodonium chloride]	120 ± 7.6	5.7	700 ± 870	–
CCCN(CCC)CCc1ccc(O)c(O)c1 [Dipropyldopamine hydrobromide]	1290 ± 60	–	–	–
COc1cccc2c1C(=O)c1c(O)c3c(c(O)c1C2=O)C[C@@](O)(C(=O)CO)C[C@@H]3O[C@H]1C[C@H](N)[C@H](O)[C@H](C)O1 [Doxorubicin]	–	–	–	EC50 (MRC5 cells; Homo sapiens, MRC5, 72 h, read-out: EC50 against MRC5 (control drug)): 85.9 ± 38.2 nM

Compound	EC50 [1, 2] [nM]	Selectivity (MRC5 cells)	EC50 (MRC5 cells; [3]) [nM]	further results
Cc1c2ccncc2c(C)c2c1[nH]c1ccccc12 [Ellipticine]	–	3.7	–	EC50 [1, 4]: 460 ± 45 nM; EC50 (MRC5 cells; [5]): 1700 ± 620 nM
CC[C@H]1CN2CCc3cc(OC)c(OC)cc3[C@@H]2C[C@@H]1C[C@H]1NCCc2cc(OC)c(OC)cc21 [Emetine dihydrochloride hydrate]	–	–	–	EC50 [1, 4]: 7.9 ± 0.53 nM; EC50 (MRC5 cells; [5]): 30 ± 3.1 nM
CC(=O)[C@]1(O)Cc2c(O)c3c(c(O)c2[C@@H](O[C@H]2C[C@H](N)[C@H](O)[C@H](C)O2)C1)C(=O)c1ccccc1C3=O [Idarubicin]	20 ± 1.5	3.9	78 ± 29	–
O=C1Nc2ccccc2/C1=C1/Nc2ccccc2/C1=N\O [Indirubin-3′-oxime]	–	–	–	EC50 ([1]; read-out: EC50 vs. T. brucei): 1280 ± 90 nM
O=C1Cc2c([nH]c3ccc(Br)cc23)-c2ccccc2N1 [Kenpaullone]	1860 ± 270	–	–	–
CC[C@H](C)C(=O)O[C@H]1CCC=C2C=C[C@H](C)[C@H](CC[C@@H]3C[C@@H](O)CC(=O)O3)[C@H]21 [Mevastatin]	–	2.2	2000 ± 360	EC50 [1, 4]: 940 ± 50 nM
O=C1c2c(O)ccc(O)c2C(=O)c2c(NCCNCCO)ccc(NCCNCCO)c21 [Mitoxantrone]	2.4 ± 0.2	46	110 ± 37	–
O=C1CC[C@@]2(O)[C@H]3Cc4ccc(O)c5c4[C@@]2(CCN3CC2CC2)[C@H]1O5 [Naltrexone]	–	–	–	EC50 ([1]; Trypanosoma brucei, read-out: EC50 of opioid receptor ligands against T. brucei): > 100000 nM
C=C1C(=O)O[C@H]2[C@H]1CC/C(C)=C/CC[C@@]1(C)O[C@@H]21 [Parthenolide]	–	–	–	EC50 [1, 6]: 1060 ± 80 nM
O=c1[nH]c2ccccc2n1C1CCN(CCCC(c2ccc(F)cc2)c2ccc(F)cc2)CC1 [Pimozide]	340 ± 19	41	–	–
CC(C)[C@H](CO)Nc1nc(Nc2cccc(Cl)c2)c2ncn(C(C)C)c2n1 [Purvalanol A]	820 ± 55	12	–	–
CCN(CC)CCCC(C)Nc1c2ccc(Cl)cc2nc2ccc(OC)cc12 (stereo not shown) [Quinacrine dihydrochloride]	380 ± 13	5.0	1900 ± 440	–
CCCN1CCc2cccc3c2[C@H]1Cc1ccc(O)c(O)c1-3 [R(−)-Propylnorapomorphine hydrochloride]	–	–	–	EC50 ([1]; read-out: EC50 vs. T. brucei): 1520 ± 210 nM
CC1=C(/C=C/C(C)=C/C=C/C(C)=C/C(=O)Nc2ccc(O)cc2)C(C)(C)CCC1 [Retinoic acid p-hydroxyanilide]	–	–	–	EC50 ([1]; read-out: EC50 vs. T. brucei): 2230 ± 270 nM
O=[N+]([O-])c1ccc(CSc2ncnc3c2ncn3[C@@H]2O[C@H](CO)[C@@H](O)[C@H]2O)cc1 [S-(4-Nitrobenzyl)-6-thioinosine]	3780 ± 550	–	–	–
[N-]=[N+]=Nc1ccc(C(=O)CSC[C@H](NC(=O)CC[C@H](N)C(=O)O)C(=O)NCC(=O)O)cc1 [S-(p-Azidophenacyl)glutathione]	–	–	–	EC50 ([1]; read-out: EC50 vs. T. brucei): > 10000 nM
Cc1nc(-c2ccc(-c3ccc(C(=O)N4CCc5cc6c(cc54)C4(CCN(C)CC4)CO6)cc3)c(C)c2)no1 [SB 224289 hydrochloride, 1′-Methyl-5-([2′-methyl-4′-(5-methyl-1,2,4-oxadiazol-3-yl)biphenyl-4-yl]carbonyl)-2,3,6,7-tetrahydro-spiro(furo[2,3-f]indole-3,4′-piperidine)]	–	–	–	EC50 [1, 6]: 1350 ± 280 nM
Br.CN1Cc2sccc2C(c2ccc(O)c(O)c2)C1 (stereo not shown) [SKF 89145 hydrobromide, 4-(3,4-Dihydroxyphenyl)-6-methyl-4,5,6,7-tetrahydrothieno[2,3-c]pyridine HBr]	610 ± 44	4.7	2900 ± 200	–
C[n+]1cc2c3c(ccc2c2ccc4cc5c(cc4c21)OCO5)OCO3 [Sanguinarine chloride]	240 ± 17	5.8	1400 ± 350	–
CCCCCCCCCCCCC/C=C/[C@@H](O)[C@@H](N)CO [Sphingosine]	820 ± 78	5.7	4600 ± 2500	–
Cc1ccc(C(=O)Nc2ccc(S(=O)(=O)O)c3cc(S(=O)(=O)O)cc(S(=O)(=O)O)c23)cc1NC(=O)c1cccc(NC(=O)Nc2cccc(C(=O)Nc3cc(C(=O)Nc4ccc(S(=O)(=O)O)c5cc(S(=O)(=O)O)cc(S(=O)(=O)O)c45)ccc3C)c2)c1 [Suramin hexasodium]	< 70	>710	> 50000	EC50 [1, 7]: 20.1 ± 1.1 nM; EC50 ([1]; read-out: EC50 vs. T. brucei): 68 ± 3.5 nM; Selectivity / specificity for T. brucei over human fibroblasts (MRC5 cells): > 700 fold
CC(=O)O[C@H]1C(=O)[C@@]2(C)[C@H]([C@H](OC(=O)c3ccccc3)[C@]3(O)C[C@H](OC(=O)[C@H](O)[C@@H](NC(=O)c4ccccc4)c4ccccc4)C(C)=C1C3(C)C)[C@]1(OC(C)=O)CO[C@@H]1C[C@@H]2O [Taxol]	3.3 ± 0.071	2	6.6 ± 9.8	–
Nc1nc(N)nc(Nc2ccc([As]3SCC(CO)S3)cc2)n1 (stereo not shown) [melarsoprol]	–	–	–	EC50 [1, 7]: 7.52 ± 0.28 nM; EC50 [1, 8]: 8 nM
CC1CS(=O)(=O)CCN1/N=C/c1ccc([N+](=O)[O-])o1 (stereo not shown) [nifurtimox]	–	–	–	EC50 [1, 7]: 1800 nM; EC50 [1, 8]: 1810 ± 130 nM
Buprenorphine	–	–	–	Activity against T. brucei (in words) [1]: weak activity
